Experimental data as given in EP0158299A2, “Substituted phenylethyl derivatives, process for their preparation and pharmaceutical agents” (Merz & Co. GmbH & Co., priority 1984, dated 1985).
In brackets after ≈: the same amount, converted by molar mass. Counter-ions that a name gives are not always drawn.

Columns and labels:
Format in all cases: cell-based
[1] = tested on: A.c.; test: serial dilution test, fungistatic activity (MIC); conditions: Pilzspezies A.c.; read-out: Minimale Hemmkonzentrationen
Text: (§1) Die erfindungemäßen Verbindungen wurden im Reihenverdünnungstest auf ihre fungistatische Wirksamkeit gegen verschiedene Pilzspezies und gegen verschiedene Bakterienstämme geprüft. Die so ermittelten minimalen Hemmkonzentrationen (MHK) sind in den folgenden Tabellen wiedergegeben: […]

[2] = tested on: A.f.; test: serial dilution test, fungistatic activity (MIC); conditions: Pilzspezies A.f.; read-out: Minimale Hemmkonzentrationen
Text: as §1

[3] = tested on: C.a.; test: serial dilution test, fungistatic activity (MIC); conditions: Pilzspezies C.a.; read-out: Minimale Hemmkonzentrationen
Text: as §1

[4] = tested on: C.t.; test: serial dilution test, fungistatic activity (MIC); conditions: Pilzspezies C.t.; read-out: Minimale Hemmkonzentrationen
Text: as §1

[5] = tested on: M.c.; test: serial dilution test, fungistatic activity (MIC); conditions: Pilzspezies M.c.; read-out: Minimale Hemmkonzentrationen
Text: as §1

[6] = tested on: T.m.; test: serial dilution test, fungistatic activity (MIC); conditions: Pilzspezies T.m.; read-out: Minimale Hemmkonzentrationen
Text: as §1

[7] = tested on: T.r.; test: serial dilution test, fungistatic activity (MIC); conditions: Pilzspezies T.r.; read-out: Minimale Hemmkonzentrationen
Text: as §1

[8] = tested on: Staphylococcus aureus; test: serial dilution test against bacterial strains (MIC); conditions: Bakterienstämme S.a. = Staphylococcus aureus; read-out: Minimale Hemmkonzentrationen
Text: as §1

[9] = tested on: Streptococcus faecalis; test: as above; conditions: Enterococcus faecalis; Bakterienstämme S.f. = Streptococcus faecalis; read-out: Minimale Hemmkonzentrationen
Text: as §1

[10] = tested on: Streptococcus pyogenes; test: as above; conditions: Bakterienstämme S.p. = Streptococcus pyogenes; read-out: Minimale Hemmkonzentrationen
Text: as §1

[11] = tested on: S.s.; test: serial dilution test, fungistatic activity (MIC); conditions: Pilzspezies S.s.; read-out: Minimale Hemmkonzentrationen
Text: as §1

Compound	MIC [1] [µg/mL]	MIC [2] [µg/mL]	MIC [3] [µg/mL]	MIC [4] [µg/mL]	MIC [5] [µg/mL]	MIC [6] [µg/mL]	MIC [7] [µg/mL]	MIC [8] [µg/mL]	MIC [9] [µg/mL]	MIC [10] [µg/mL]	MIC [11] [µg/mL]
FC(F)(Oc1ccc(CON=C(Cn2ccnc2)c2ccc(Cl)cc2Cl)cc1)C(Cl)Cl [Verbind. I, 1-(2,4-Dichlorphenyl)-2-(1H-imidazol-1-yl)-0-(4-(2,2-dichlor-1,1-difluorethoxy)benzyl)ethanonoxim-nitrat]	1.6 (≈ 3.14 µM)	12.5 (≈ 24.5 µM)	0.1 (≈ 0.196 µM)	0.8 (≈ 1.57 µM)	3.1 (≈ 6.09 µM)	6.25 (≈ 12.3 µM)	6.25 (≈ 12.3 µM)	6.25 (≈ 12.3 µM)	12.5 (≈ 24.5 µM)	0.8 (≈ 1.57 µM)	–
Clc1ccc(C(Cn2ccnc2)=NOCc2ccc(C3CC3(Cl)Cl)cc2)c(Cl)c1 (stereo not shown) [Verbind. II, 1-(2,4-Dichlorphenyl)-2-(1H-imidazol-1-yl)-0-(4-(2,2-di-chlorcyclopropyl)benzyl)ethanonoxim-nitrat]	–	25 (≈ 53.3 µM)	3.1 (≈ 6.61 µM)	25 (≈ 53.3 µM)	–	12.5 (≈ 26.6 µM)	6.2 (≈ 13.2 µM)	–	–	–	1.6 (≈ 3.41 µM)
Clc1ccc(C(Cn2ccnc2)OCc2ccc(C3CC3(Cl)Cl)cc2)c(Cl)c1 (stereo not shown) [Verbind. III, 1-(2,4-Dichlorphenyl)-1-(4-(2,2-dichlorcyclopropyl)benzyloxy)-2-(1H-imidazol-1-yl)ethan-nitrat]	–	1.6 (≈ 3.51 µM)	0.05 (≈ 0.11 µM)	3.1 (≈ 6.8 µM)	–	0.8 (≈ 1.75 µM)	0.8 (≈ 1.75 µM)	–	–	–	0.2 (≈ 0.438 µM)
FC(F)(Oc1ccc(COC(Cn2ccnc2)c2ccc(Cl)cc2Cl)cc1)C(Cl)Cl (stereo not shown) [Verbind. IV, 1-(2,4-Dichlorphenyl)-1-(4-(2,2-dichlor-1,1-difluor-ethoxy)benzyloxy)-2-(1H-imidazol-1-yl)ethan-hydrochlorid]	–	3.1	0.1	0.1	–	0.1	0.1	3.1	1.6	< 0.2	–
FC(Cl)C(F)(F)Oc1ccc(COC(Cn2ccnc2)c2ccc(Cl)cc2Cl)cc1 (stereo not shown) [Verbind. VI, 1-(2,4-Dichlorphenyl)-1-(4-(2-chlor-1,1,2-trifluorethoxy)benzyloxy)-2-(1H-imidazol-1-yl)ethan-nitrat]	–	1.6 (≈ 3.34 µM)	0.05 (≈ 0.104 µM)	1.6 (≈ 3.34 µM)	0.2 (≈ 0.417 µM)	0.8 (≈ 1.67 µM)	0.8 (≈ 1.67 µM)	–	–	–	0.1 (≈ 0.208 µM)
